What was measured:
[1] = tested on: TMEM16F^flox/flox IFETs; assay: Ca2+-induced PS exposure (Cy5-Annexin V binding, flow cytometry); type: cell-based, mouse; settings: 20° C., 3.0 μM A23187
Procedure: (§1) A, Ca^2+ ionophore induced PS exposure. TMEM16F^flox/flox and TMEM16F^−/− IFETs were treated at 20° C. with 3.0 μM A23187 in the presence of Cy5-labeled Annexin V. Annexin V-binding to the cells was monitored by flow cytometry for 10 min, and expressed in MFI (mean fluorescence intensity).
(§2) The Ca^2+-induced PS exposure were examined as described (20). In brief, 5×10^5 cells were stimulated at 20° C. with 3.0 μM A23187 in 500 μl of 10 mM Hepes-NaOH buffer (pH 7.4) containing 140 mM NaCl, 2.5 mM CaCl2 and 5 μg/ml Propidium Iodide (PI), and 1000-fold-diluted Cy5-labeled Annexin V (Bio Vision, Milpitas, Calif.), and applied to the injection chamber of a FACSAria (BD Bioscience, Franklin Lakes, N.J.) set at 20° C.

[2] = tested on: TMEM16F^−/− IFETs; assay: as above; type: cell-based, mouse; settings: 20° C., 3.0 μM A23187
Procedure: as §1, §2

[3] = tested on: TMEM16F^flox/flox IFETs; assay: Ca2+-induced PE exposure (binding of RO-peptide); type: cell-based, mouse; settings: data not shown
[4] = tested on: TMEM16F^flox/flox IFETs; assay: Internalization of NBD-PC and NBD-GalCer; type: cell-based, mouse; settings: 15° C., 250 nM A23187
Procedure: B and C, Ca^2+ ionophore induced lipid internalization. TMEM16F^flox/flox and TMEM16F^−/− IFETs were treated at 15° C. with 250 nM A23187 in the presence of 100 nM NBD-PC (B) or 250 nM NBD-GalCer (C). Using aliquots of the reaction mixture, the BSA-non extractable level of NBD-PC or NBD-GalCer in the SytoxBlue-negative population was determined at the indicated time by FACSAria, and expressed in MFI.
(§3) Cells (10^6) were stimulated at 15° C. with 250 nM A23187 in 1 ml Hank's Balanced Salt Solution (HBSS) (Gibco, Billings, Mont.) containing 1 mM CaCl2, with a fluorescent probe, 100 nM 1-oleoyl-2-{6-[(7-nitro-2-1,3-benzoxadiazol-4-yl)amino]hexanoyl}-sn-glycero-3-phosphocholine (NBD-PC) (Avanti Polar Lipids, Alabaster, Ala.), or 250 nM N-[6-[(7-nitro-2-1,3-benzoxadiazol-4-yl)amino]hexanoyl]-D-galactosyl-β1-1′-sphingosine (C6-NBD galactosyl ceramide or NBD-GalCer) (Avanti Polar Lipids). Aliquots (150 μl) were mixed with 150 μl HBSS containing 5 mg/ml fatty-acid free BSA (Sigma-Aldrich) and 500 nM Sytoxblue (Molecular Probes, Eugene, Oreg.), and analyzed by FACSAria.

[5] = tested on: TMEM16D transformants of TMEM16F^−/− IFETs; assay: Internalization of NBD-PC and NBD-GalCer by TMEM16D transformants; type: cell-based, mouse; settings: 15° C.
Procedure: (§4) A and C, The ability of TMEM16 family members to internalize NBD-PC and NBD-GalCer. TMEM16F^−/− IFETs transformed with the indicated TMEM16 family member were treated at 15° C. with (+) or without (−) 250 nM A23187 in the presence of 100 nM NBD-PC for 4 min (A) or 250 nM NBD-GalCer for 5 min (C), and the internalized, or BSA-non extractable NBD-PC or NBD-GelCer, was quantified by FACSAria, and expressed in MFI.
B, Requirement of Ca^2+ for the constitutive internalization of NBD-PC by TMEM16D. The TMEM16D transformants of TMEM16F^−/− IFETs were treated with 40 μM BAPTA-AM for 30 min in Ca^2+-free RPMI, and incubated at 15° C. for 8 min in HBSS containing 1 mM CaCl2 and 100 nM NBD-PC. The internalized NBD-PC was determined as above, and expressed as percentage of the internalized NBD-PC obtained without BAPTA-AM treatment.
as §3

[6] = tested on: IFETs expressing TMEM16A, 16B, 16E, 16H, or 16K; assay: Internalization of NBD-PC by TMEM16 transformants without scramblase activity; type: cell-based, mouse; settings: 250 nM A23187
Procedure: as §4, §3

[7] = tested on: IFETs expressing mouse Fas; assay: FasL-induced apoptosis; type: cell-based
Procedure: E-G, FasL-induced apoptosis. Fas-expressing TMEM16F^flox/flox and TMEM16F^−/− IFETs were treated at 37° C. for 2 h with 60 units/ml FasL in the absence or presence of 50 μM Q-VD-OPh. In E, the cells were permeabilized with 90% methanol, and stained with rabbit anti-active caspase 3 followed by incubation with Alexa 488-labeled goat anti-rabbit IgG. In F, cells were stained with Cy5-labeled Annexin V and PI and analyzed by FACSAria. In G, cells were analyzed by FACSAria before and after FasL treatment; the FSC and SSC profiles are shown.
Apoptosis was induced with FasL as described (25). In brief, IFETs expressing mouse Fas were treated with 60 units/ml FasL at 37° C. for 2 h, and PS exposure was determined by flow cytometry with Cy5-Annexin V. To detect activated caspase 3, cells were fixed at 37° C. for 10 min in PBS containing 1% paraformaldehyde, permeabilized with 90% methanol at −20° C., and stained with rabbit mAb against active caspase 3 (Cell Signaling, Danvers, Mass.). Cells were then incubated with Alexa 488-labeled goat anti-rabbit IgG (Invitrogen), and analyzed by FACSAria.

[8] = TMEM16F^flox/flox and TMEM16F^−/− IFETs, to the same extent

Molecule: CNc1ccc2oc(C[C@H]3O[C@@]4(CC[C@H]3C)O[C@H]([C@H](C)C(=O)c3ccc[nH]3)[C@H](C)C[C@H]4C)nc2c1C(=O)O [A23187]
- PS exposure [1]: quickly exposed PS
- PS exposure [2]: completely absent
- PE-exposure [3]: caused rapid PE-exposure
- internalization of NBD-PC and NBD-GalCer [4]: internalized NBD-PC and NBD-GalCer
- NBD-PC internalization ([5]; 250 nM A23187, 100 nM NBD-PC, 4 min, versus constitutive uptake): strongly enhanced
- NBD-GalCer uptake ([5]; 250 nM A23187, 250 nM NBD-GalCer, 5 min, versus constitutive uptake): enhanced
- NBD-PC uptake [6]: did not induce

Molecule: CC(=O)OCOC(=O)CN(CC(=O)OCOC(C)=O)c1ccccc1OCCOc1ccccc1N(CC(=O)OCOC(C)=O)CC(=O)OCOC(C)=O [BAPTA-AM]
- NBD-PC uptake observed without Ca2+-ionophore ([5]; pre-treatment 40 μM BAPTA-AM 30 min, 100 nM NBD-PC, 8 min): reduced

B1: FasL: Leucine-zipper-tagged human FasL produced in COS7 cells (protein)
chain: QIGHPSPPPEKKELRKVAHLTGKSNSRSMPLEWEDTYGIVLLSGVKYKKGGLVINETGLYFVYSKVYFRGQSCNNLPLSHKVYMRNSKYPQDLVMMEGKMMSYCTTGQMWARSSYLGAVFNLTSADHLYVNVSELSLVNFEESQTFFGLYKL
modifications: left off: small tags and cut ends
notes: Leucine-zipper-tagged human FasL produced in COS7 cells
- caspase 3 activation ([7]; 60 units/ml FasL, 37° C., 2 h): efficiently activated
- PS exposure ([7]; 60 units/ml FasL, 37° C., 2 h, Cy5-Annexin V): quickly responded by exposing PS
- cell size (forward-scattered light, FSC) [7, 8]: decreased
- cellular granularity (side-scattered light, SSC) [7, 8]: increased
